Results on 15 compounds are retold here after patent publication US6762182B1, “Converting cox inhibition compounds that are not COX-2 selective inhibitors to derivatives that are COX-2 selective inhibitors” (Vanderbilt University, priority 1999, dated 2004).

One assay addresses T1, ovine COX-1 (Ovis aries, UniProt P05979).
T1 sequence (P05979 25-600): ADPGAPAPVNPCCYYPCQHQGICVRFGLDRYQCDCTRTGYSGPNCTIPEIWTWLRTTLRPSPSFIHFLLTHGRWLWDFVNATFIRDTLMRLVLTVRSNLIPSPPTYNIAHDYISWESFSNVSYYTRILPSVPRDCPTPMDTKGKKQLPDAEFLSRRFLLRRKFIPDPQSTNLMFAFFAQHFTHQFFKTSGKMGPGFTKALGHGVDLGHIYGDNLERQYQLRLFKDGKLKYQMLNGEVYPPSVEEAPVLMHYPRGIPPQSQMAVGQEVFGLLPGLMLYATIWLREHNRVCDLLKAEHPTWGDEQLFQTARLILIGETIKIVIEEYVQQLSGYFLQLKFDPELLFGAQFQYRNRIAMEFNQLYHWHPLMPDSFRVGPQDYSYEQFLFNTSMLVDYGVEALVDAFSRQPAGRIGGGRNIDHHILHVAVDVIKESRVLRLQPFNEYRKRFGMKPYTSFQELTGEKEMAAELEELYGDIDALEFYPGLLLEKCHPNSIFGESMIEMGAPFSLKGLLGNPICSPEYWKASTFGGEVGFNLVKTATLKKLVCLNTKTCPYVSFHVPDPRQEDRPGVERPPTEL
Nature of the assay: TLC assay, inhibition of purified ovine COX-1.

In assay [1] the target is T2, COX-2 (Homo sapiens, UniProt P35354).
T2 sequence (P35354 18-604): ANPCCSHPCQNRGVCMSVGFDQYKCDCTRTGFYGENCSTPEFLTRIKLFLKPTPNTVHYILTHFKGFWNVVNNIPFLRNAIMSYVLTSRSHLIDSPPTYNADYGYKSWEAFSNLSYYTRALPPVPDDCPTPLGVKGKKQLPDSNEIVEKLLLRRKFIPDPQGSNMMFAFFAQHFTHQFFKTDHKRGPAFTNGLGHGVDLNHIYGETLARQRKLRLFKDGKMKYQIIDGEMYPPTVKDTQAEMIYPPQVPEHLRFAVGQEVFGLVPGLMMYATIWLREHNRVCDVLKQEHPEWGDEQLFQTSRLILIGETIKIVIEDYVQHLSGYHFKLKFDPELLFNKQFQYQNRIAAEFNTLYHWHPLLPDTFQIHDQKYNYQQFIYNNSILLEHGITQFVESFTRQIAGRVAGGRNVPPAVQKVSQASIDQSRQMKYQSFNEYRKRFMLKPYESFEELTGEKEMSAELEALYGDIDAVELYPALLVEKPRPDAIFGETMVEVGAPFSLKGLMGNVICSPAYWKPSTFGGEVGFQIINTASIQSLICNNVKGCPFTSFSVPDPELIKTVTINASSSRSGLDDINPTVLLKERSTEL
The assay is described as follows: TLC assay, inhibition of purified human COX-2. To be noted: for IC50: human COX-2 (66 nM). Type of assay: biochemical.
Excerpt: (§1) Ovine COX-1 was used because it is very easy to isolate and to purify the enzyme from sheep seminal vesicles, whereas human COX-1 is normally obtained by over expression in an insect cell system and is very difficult to handle and especially to purify. COX-1 from sheep is >90% similar to COX-1 from humans. […] COX-1 was purified from ram seminal vesicles obtained from Oxford Biomedical Research, Inc. (Oxford, Mich.). […] The enzymes obtained after purification were apo (i.e., they lacked the hemprosthetic group).
(§2) Reactions were terminated by solvent extraction in Et2O/CH3OH/1 M citrate, pH 4.0 (30:4:1). The phases were separated by centrifugation at 2000 g-force for 2 minutes and the organic phase was spotted on a TLC plate (obtained from J. T. Baker, Phillipsburg, N.J.). The plate was developed in EtOAc/CH2Cl2/glacial AcOH (75:25:1) at 4° C. Radiolabeled prostanoid products were quantitatively determined with a radioactivity scanner (obtained from Bioscan, Inc., Washington, D.C.).

In assay [2] the test system is carrageenan-induced rat foot pad edema. The assay is described as follows: Rat foot pad edema model (carrageenan). The assay is classed as in vivo. The following applies: for 3 hour edema: gavage 1 hour post carrageenan, 6 rats. (In the carrageenan paw model, swelling and tenderness develop within hours.)
Description: Rats were injected with carrageenan, which triggers a rapid edema (swelling) within 3 hours that can be quantitatively measured by volume displacement.
In these experiments, the carrageenan that was injected was in 0.1 mL of aqueous saline so that 0.1 mL volume increase was due to the injection alone. […] More specifically, male Sprague-Dawley rats (150 g) received a subplantar injection of carrageenan (0.1 mL of a 1% suspension of carrageenan in sterile aqueous saline) into the right hind footpad while mildly anesthetized with methoxyflurane. […] The ipsilateral footpad volume (mL) was measured with a water displacement plethysmometer at time=3 hours post-injection and compared to the time=0 pre-injection paw volume for edema calculations.
Assay [3] addresses T2, COX-2. The following applies: background; cited from earlier work.
A further assay has as its target COX-1 (Homo sapiens, UniProt P23219). To be noted: background; cited from earlier work.
[4] abbreviates: read-out: IC50 (μM) COX-1, Table 1 ester derivatives, ovine COX-1 (44 nM), 20 min at rt, then 14C-AA (50 μM) 37° C. 30 sec.
Where [5] appears, read: read-out: IC50 (μM) COX-1, Table 2 amide derivatives, ovine COX-1 (44 nM), 20 min, then 1-14C-AA (50 μM) 37° C. 30 sec.
[6] abbreviates: Table 2 amide derivatives, 20 min, then 1-14C-AA (50 μM) 37° C. 30 sec.

Where two headings read alike, the source gives them in different places.

Chain of COX-1 (P23219 24-599): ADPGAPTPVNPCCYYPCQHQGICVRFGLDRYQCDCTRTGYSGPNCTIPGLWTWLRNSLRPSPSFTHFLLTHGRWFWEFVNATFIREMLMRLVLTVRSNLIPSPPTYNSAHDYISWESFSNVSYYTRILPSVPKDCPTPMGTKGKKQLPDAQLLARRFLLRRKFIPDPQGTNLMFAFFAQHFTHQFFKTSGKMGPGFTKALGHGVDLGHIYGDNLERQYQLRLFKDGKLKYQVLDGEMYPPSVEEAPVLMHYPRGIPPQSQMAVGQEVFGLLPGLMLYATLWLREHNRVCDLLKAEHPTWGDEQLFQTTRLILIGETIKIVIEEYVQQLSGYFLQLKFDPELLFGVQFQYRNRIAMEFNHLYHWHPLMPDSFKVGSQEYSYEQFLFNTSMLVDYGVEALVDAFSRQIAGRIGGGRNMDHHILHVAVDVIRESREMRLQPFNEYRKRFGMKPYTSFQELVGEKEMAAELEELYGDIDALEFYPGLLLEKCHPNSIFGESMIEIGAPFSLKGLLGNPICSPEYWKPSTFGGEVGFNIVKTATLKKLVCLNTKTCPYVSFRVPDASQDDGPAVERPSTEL
Excerpt for ovine COX-1: as §1, §2

`COc1ccc2c(c1)c(CC(=O)Oc1ccc3ccccc3c1)c(C)n2C(=O)c1ccc(Cl)cc1` [Compound 25, Indomethacin β-naphthyl ester] yielded an IC50 against ovine COX-1 above 66 µM.
As for `COC(=O)Cc1c(C)n(C(=O)c2ccc(Cl)cc2)c2ccc(OC)cc12` [Compound 2, Indomethacin methyl ester], the IC50 on ovine COX-1 is around 33 µM; at ovine COX-1 (setting [4]) it was 33 µM.
Take `COc1ccc2c(c1)c(CC(=O)Nc1cc(OC)c(OC)c(OC)c1)c(C)n2C(=O)c1ccc(Cl)cc1` [Compound 46, Indomethacin-N-(3,4,5-trimethoxyphenyl) amide]: the IC50 on ovine COX-1 (setting [5]) is above 66 µM; against COX-2 [1] (setting [6]) it was above 1 µM. The “Selectivity, ratio of IC50 (COX-1):IC50 (COX-2)” value on COX-2 [1] (Table 2 amide derivatives) is given as above 66.
For the compound `COc1ccc2c(c1)c(CC(=O)Nc1ccc(NC(C)=O)cc1)c(C)n2C(=O)c1ccc(Cl)cc1` [Compound 41, Indomethacin-N-(4-acetamidophenyl) amide], the “3 hour edema” value in assay [2] (Concentration 0.2 mg/mL) came to 0.55 mL; in assay [2] (Concentration 0.5 mg/mL) it was 0.47 mL; in assay [2] (Concentration 1.0 mg/mL) it was 0.39 mL; in assay [2] (Concentration 2.0 mg/mL), 0.38 mL. Moreover, the reduction in inflammation in assay [2] (rat, 2 mg/kg orally 1 hour after carrageenan, corrected for 0.1 mL injection volume) is listed as 80-85%.
As for `COc1ccc2c(c1)c(CC(=O)O)c(C)n2C(=O)c1ccc(Cl)cc1` [Indomethacin, reference compound], the “reduction in inflammation, in words” value in assay [2] (rat, 2 mg/kg orally) is on record as “comparable reduction in inflammation”.
At ovine COX-1, `CCCCC#CCOC(=O)Cc1c(C)n(C(=O)c2ccc(Cl)cc2)c2ccc(OC)cc12` [Compound 14, Indomethacin hept-2-ynyl ester] came in with an IC50 above 66 µM.
`Cc1nc(-c2ccccc2)c(-c2ccc(S(N)(=O)=O)cc2)o1` [2-methyl-4-phenyl-5-sulfonamidophenyl oxazolo, reference compound]: the IC50 against ovine COX-1 was above 66 µM; on ovine COX-1 (setting [4]) it was above 66 µM; against COX-2 [1] (Table 1 ester derivatives, 20 min at rt, then 14C-AA (50 μM) 37° C. 30 sec) it was 0.06 µM.
The compound `COC(=O)[C@H](C)NC(=O)Cc1c(C)n(C(=O)c2ccc(Cl)cc2)c2ccc(OC)cc12` [Compound 52, Indomethacin-N-2-(2-L-methoxycarbonylethyl) amide] had an IC50 on COX-2 [1] (setting [6]) of 0.4 µM.
As for `CC1=C(CC(=O)O)c2cc(F)ccc2/C1=C\c1ccc(S(C)(=O)=O)cc1` [sulindac sulfone], the “COX-2 inhibition, in words” value on COX-2 [3] is given as “does not inhibit”. Also, on COX-1, the “COX-1 inhibition, in words” value is recorded as “does not inhibit”.
`CCCCCCCOC(=O)Cc1c(C)n(C(=O)c2ccc(Cl)cc2)c2ccc(OC)cc12` [Compound 11, Indomethacin heptyl ester] yielded an IC50 at ovine COX-1 above 66 µM.
With `COc1ccc2c(c1)c(CC(=O)Nc1ccc(Cl)nc1)c(C)n2C(=O)c1ccc(Cl)cc1` [Compound 48, Indomethacin-N-5-((2-chloro)pyridyl) amide], the IC50 is above 66 µM on ovine COX-1 (setting [5]) and 0.047 µM against COX-2 [1] (setting [6]). Besides, on COX-2 [1] (Table 2 amide derivatives), the “Selectivity, ratio of IC50 (COX-1):IC50 (COX-2)” value is given as above 1404.
Compound `CCCCCCCCOC(=O)Cc1c(C)n(C(=O)c2ccc(Cl)cc2)c2ccc(OC)cc12` [Compound 16, Indomethacin octyl ester] registered an IC50 against ovine COX-1 above 66 µM.
The same measure, in the same setting: next, `COc1ccc2c(c1)c(CC(=O)OC(C)C)c(C)n2C(=O)c1ccc(Cl)cc1` [Compound 5, Indomethacin isopropyl ester]: 37 µM.
Consider `COc1ccc2c(c1)c(CC(=O)Nc1nc(C)cs1)c(C)n2C(=O)c1ccc(Cl)cc1` [Compound 57, Indomethacin-N-2-(4-methylthiazolyl) amide], for which the IC50 on ovine COX-1 (setting [5]) is above 66 µM.
As to `CCC#CCC(C)OC(=O)Cc1c(C)n(C(=O)c2ccc(Cl)cc2)c2ccc(OC)cc12` (stereo not drawn) [Compound 15, Indomethacin 2-(hept-4-ynyl) ester], the IC50 at ovine COX-1 is above 66 µM.

A word on the IC50: it is the concentration that inhibits the measured activity by half.
